Test results reported in publication PMC10504751, “Chalcone/1,3,4-Oxadiazole/Benzimidazole hybrids as novel anti-proliferative agents inducing apoptosis and inhibiting EGFR & BRAFV^600E” (BMC Chemistry, 2023).
Where two headings read alike, the source gives them in different places.

Experiments:
Assay in all cases: NCI one-dose SRB anti-proliferative screen
Format in all cases: cell-based
[1] = system: KM12; conditions: Homo sapiens, read-out: Cell growth inhibition %
Summary of the method: (§1)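 Each hybrid is applied once, at 10 µM, and anti-proliferative effect is quantified by SRB colorimetry.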

[2] = system: SW-620; conditions: Homo sapiens, read-out: Cell growth inhibition %
Summary of the method: as §1

[3] = system: HT29; conditions: Homo sapiens, HT-29, read-out: Cell growth inhibition %
Summary of the method: as §1

[4] = system: SR; conditions: Homo sapiens, read-out: Cell growth inhibition %
Summary of the method: as §1

[5] = system: LOX IMVI; conditions: Homo sapiens; for inhibition at 10 µM: read-out: Cell growth inhibition %; for activity at 10 µM: LOX IMVI (Melanoma), 10 µM one dose, read-out: Growth Percent
Summary of the method: as §1

[6] = system: NCI-H23; conditions: Homo sapiens, read-out: Cell growth inhibition %
Summary of the method: as §1

[7] = system: HCT-15; conditions: Homo sapiens, read-out: Cell growth inhibition %
Summary of the method: as §1

[8] = system: OVCAR-8; conditions: Homo sapiens, read-out: Cell growth inhibition %
Summary of the method: as §1

[9] = system: BT-549; conditions: Homo sapiens, read-out: Cell growth inhibition %
Summary of the method: as §1

[10] = system: CCRF-CEM; conditions: Homo sapiens, read-out: Cell growth inhibition %
Summary of the method: as §1

[11] = system: IGROV1; conditions: Homo sapiens, IGROV-1, read-out: Cell growth inhibition %
Summary of the method: as §1

[12] = system: OVCAR-5; conditions: Homo sapiens, read-out: Cell growth inhibition %
Summary of the method: as §1

[13] = system: PC-3; conditions: Homo sapiens, read-out: Cell growth inhibition %
Summary of the method: as §1

[14] = system: MDA-MB-468; conditions: Homo sapiens, read-out: Cell growth inhibition %
Summary of the method: as §1

[15] = system: SK-OV-3; conditions: Homo sapiens, read-out: Cell growth inhibition %
Summary of the method: as §1

[16] = system: SF-295; conditions: Homo sapiens, read-out: Cell growth inhibition %
Summary of the method: as §1

[17] = system: DU-145; conditions: Homo sapiens, read-out: Cell growth inhibition %
Summary of the method: as §1

[18] = system: SK-MEL-2; conditions: Homo sapiens, read-out: Cell growth inhibition %
Summary of the method: as §1

[19] = system: NCI-H460; conditions: Homo sapiens, read-out: Cell growth inhibition %
Summary of the method: as §1

[20] = system: NCI-H226; conditions: Homo sapiens, read-out: Cell growth inhibition %
Summary of the method: as §1

[21] = system: CAKI-1; conditions: Homo sapiens, read-out: Cell growth inhibition %
Summary of the method: as §1

[22] = system: UO-31; conditions: Homo sapiens, read-out: Cell growth inhibition %
Summary of the method: as §1

[23] = system: ACHN; conditions: Homo sapiens, read-out: Cell growth inhibition %
Summary of the method: as §1

[24] = system: MCF7; conditions: Homo sapiens, read-out: Cell growth inhibition %
Summary of the method: as §1

[25] = system: OVCAR-3; conditions: Homo sapiens, read-out: Cell growth inhibition %
Summary of the method: as §1

[26] = system: U251; conditions: Homo sapiens, U-251, read-out: Cell growth inhibition %
Summary of the method: as §1

[27] = system: OVCAR-4; conditions: Homo sapiens, read-out: Cell growth inhibition %
Summary of the method: as §1

[28] = system: RPMI-8226; conditions: Homo sapiens, read-out: Cell growth inhibition %
Summary of the method: as §1

[29] = system: HS 578T; conditions: Homo sapiens, read-out: Cell growth inhibition %
Summary of the method: as §1

[30] = system: 786-0; conditions: Homo sapiens, read-out: Cell growth inhibition %
Summary of the method: as §1

[31] = system: UACC-257; conditions: Homo sapiens, read-out: Cell growth inhibition %
Summary of the method: as §1

[32] = system: SN12C; conditions: Homo sapiens, read-out: Cell growth inhibition %
Summary of the method: as §1

[33] = KM12, Colon cancer, NCI one dose
[34] = SW-620, Colon cancer, NCI one dose
[35] = HT29, Colon cancer, NCI one dose
[36] = NCI-H23, Non-Small Cell Lung Cancer, NCI one dose
[37] = HCT-15, Colon cancer, NCI one dose
[38] = OVCAR-8, Ovarian Cancer, NCI one dose
[39] = BT-549, Breast cancer, NCI one dose
[40] = CCRF-CEM, Leukemia, NCI one dose
[41] = IGROV1, Ovarian Cancer, NCI one dose
[42] = OVCAR-5, Ovarian Cancer, NCI one dose
[43] = PC-3, Prostate Cancer, NCI one dose
[44] = MDA-MB-468, Breast cancer, NCI one dose
[45] = SK-OV-3, Ovarian Cancer, NCI one dose
[46] = SF-295, CNS Cancer, NCI one dose
[47] = DU-145, Prostate Cancer, NCI one dose
[48] = SK-MEL-2, Melanoma, NCI one dose
[49] = NCI-H460, Non-Small Cell Lung Cancer, NCI one dose
[50] = NCI-H226, Non-Small Cell Lung Cancer, NCI one dose
[51] = CAKI-1, Renal cancer, NCI one dose
[52] = UO-31, Renal cancer, NCI one dose
[53] = ACHN, Renal cancer, NCI one dose
[54] = MCF7, Breast cancer, NCI one dose
[55] = OVCAR-3, Ovarian Cancer, NCI one dose
[56] = OVCAR-4, Ovarian Cancer, NCI one dose
[57] = RPMI-8226, Leukemia, NCI one dose
[58] = HS 578T, Breast cancer, NCI one dose
[59] = 786-0, Renal cancer, NCI one dose
[60] = UACC-257, Melanoma, NCI one dose
[61] = SN 12C, Renal cancer, NCI one dose

COc1ccc(/C=C/C(=O)c2ccc(NC(=O)CSc3nnc(-c4ccc5[nH]c(-c6ccc(Cl)cc6)nc5c4)o3)cc2)cc1 [Compound 7h, 2-{5-[2-(4-Chlorophenyl)-1 H-benzo[d]imidazol-5-yl]-1,3,4-oxadiazol-2-ylthio}-N-{4-[(E)-3-(4-methoxyphenyl)acryloyl]phenyl}acetamide]
inhibition at 10 µM ([1]; KM12 (Colon Cancer), NCI one dose 10 µM): 0.3% | inhibition at 10 µM ([2]; SW-620 (Colon Cancer), NCI one dose 10 µM): 0% | inhibition at 10 µM ([3]; HT29 (Colon Cancer), NCI one dose 10 µM): 0% | inhibition at 10 µM ([4]; SR (Leukemia), NCI one dose 10 µM): 19.5% | inhibition at 10 µM ([5]; LOX IMIV (Melanoma), NCI one dose 10 µM): 93.2% | activity at 10 µM [5]: -32 to 18% | inhibition at 10 µM ([6]; NCI-H23 (Non-Small Cell Lung Cancer), NCI one dose 10 µM): 6% | inhibition at 10 µM ([7]; HCT-15 (Colon Cancer), NCI one dose 10 µM): 5.06% | inhibition at 10 µM ([8]; OVCAR-8 (Ovarian Cancer), NCI one dose 10 µM): 20.5% | inhibition at 10 µM ([9]; BT-549 (Breast Cancer), NCI one dose 10 µM): 15% | inhibition at 10 µM ([10]; CCRF-CEM (Leukemia), NCI one dose 10 µM): 40.1% | inhibition at 10 µM ([11]; IGROV1 (Ovarian Cancer), NCI one dose 10 µM): 4.69% | inhibition at 10 µM ([12]; OVCAR-5 (Ovarian Cancer), NCI one dose 10 µM): 0% | inhibition at 10 µM ([13]; PC-3 (Prostate Cancer), NCI one dose 10 µM): 17.5% | inhibition at 10 µM ([14]; MDA-MB-468 (Breast Cancer), NCI one dose 10 µM): 0% | inhibition at 10 µM ([15]; SK-OV-3 (Ovarian Cancer), NCI one dose 10 µM): 0% | inhibition at 10 µM ([16]; SF-295 (CNS Cancer), NCI one dose 10 µM): 0% | inhibition at 10 µM ([17]; DU-145 (Prostate Cancer), NCI one dose 10 µM): 0% | inhibition at 10 µM ([18]; SK-MEL-2 (Melanoma), NCI one dose 10 µM): 0% | inhibition at 10 µM ([19]; NCI-H460 (Non-Small Cell Lung Cancer), NCI one dose 10 µM): 0% | inhibition at 10 µM ([20]; NCI-H226 (Non-Small Cell Lung Cancer), NCI one dose 10 µM): 12.4% | inhibition at 10 µM ([21]; CAKI-1 (Renal Cancer), NCI one dose 10 µM): 2.63% | inhibition at 10 µM ([22]; UO-31 (Renal Cancer), NCI one dose 10 µM): 12.5% | inhibition at 10 µM ([23]; ACHN (Renal Cancer), NCI one dose 10 µM): 0% | inhibition at 10 µM ([24]; MCF7 (Breast Cancer), NCI one dose 10 µM): 20.3% | inhibition at 10 µM ([25]; OVCAR-3 (Ovarian Cancer), NCI one dose 10 µM): 0% | inhibition at 10 µM ([26]; U251 (CNS Cancer), NCI one dose 10 µM): 3.98% | inhibition at 10 µM ([27]; OVCAR-4 (Ovarian Cancer), NCI one dose 10 µM): 0% | inhibition at 10 µM ([28]; RPMI-8226 (Leukemia), NCI one dose 10 µM): 35.6% | inhibition at 10 µM ([29]; HS 578T (Breast Cancer), NCI one dose 10 µM): 5.34% | inhibition at 10 µM ([30]; 786-0 (Renal Cancer), NCI one dose 10 µM): 0.41% | inhibition at 10 µM ([31]; UACC-257 (Melanoma), NCI one dose 10 µM): 0% | inhibition at 10 µM ([32]; SN 12C (Renal Cancer), NCI one dose 10 µM): 6.65%

COc1ccc(-c2nc3cc(-c4nnc(SCC(=O)Nc5ccc(C(=O)/C=C/c6ccccc6)cc5)o4)ccc3[nH]2)cc1 [Compound 7k, 2-{5-[2-(4-Methoxyphenyl)-1 H-benzo[d]imidazol-5-yl]-1,3,4-oxadiazol-2-ylthio}-N-{4-[(E)-3-phenylacryloyl]phenyl}acetamide]
inhibition at 10 µM [1, 33]: 15.6% | inhibition at 10 µM [2, 34]: 0% | inhibition at 10 µM [3, 35]: 14.1% | inhibition at 10 µM ([4]; SR, Leukemia, NCI one dose): 51.6% | activity at 10 µM [5]: 14.9% | inhibition at 10 µM ([5]; Melanoma, NCI one dose): 85.1% | inhibition at 10 µM [6, 36]: 16.9% | inhibition at 10 µM [7, 37]: 23.5% | inhibition at 10 µM [8, 38]: 28.2% | inhibition at 10 µM [9, 39]: 38.1% | inhibition at 10 µM [10, 40]: 48.2% | inhibition at 10 µM [11, 41]: 2.63% | inhibition at 10 µM [12, 42]: 0% | inhibition at 10 µM [13, 43]: 22.4% | inhibition at 10 µM [14, 44]: 19.5% | inhibition at 10 µM [15, 45]: 0% | inhibition at 10 µM [16, 46]: 17.8% | inhibition at 10 µM [17, 47]: 9.04% | inhibition at 10 µM [18, 48]: 0% | inhibition at 10 µM [19, 49]: 6.61% | inhibition at 10 µM [20, 50]: 35.4% | inhibition at 10 µM [21, 51]: 14.1% | inhibition at 10 µM [22, 52]: 33.8% | inhibition at 10 µM [23, 53]: 7.59% | inhibition at 10 µM [24, 54]: 50.3% | inhibition at 10 µM [25, 55]: 0% | inhibition at 10 µM ([26]; U251, CNS Cancer, NCI one dose): 33.2% | inhibition at 10 µM [27, 56]: 19.1% | inhibition at 10 µM [28, 57]: 86.7% | inhibition at 10 µM [29, 58]: 7.69% | inhibition at 10 µM [30, 59]: 41.2% | inhibition at 10 µM [31, 60]: 0.49% | inhibition at 10 µM [32, 61]: 15.2%

COc1ccc(-c2nc3cc(-c4nnc(SCC(=O)Nc5ccc(C(=O)/C=C/c6ccc(Cl)cc6)cc5)o4)ccc3[nH]2)cc1 [Compound 7l, 2-{5-[2-(4-Methoxyphenyl)-1 H-benzo[d]imidazol-5-yl]-1,3,4-oxadiazol-2-ylthio}-N-{4-[(E)-3-(4-chlorophenyl)acryloyl]phenyl}acetamide]
inhibition at 10 µM [1, 33]: 0% | inhibition at 10 µM [2, 34]: 3.03% | inhibition at 10 µM [3, 35]: 0% | inhibition at 10 µM ([4]; SR, Leukemia, NCI one dose): 31.8% | activity at 10 µM [5]: -29.9% | inhibition at 10 µM ([5]; Melanoma, NCI one dose): 130% | inhibition at 10 µM [6, 36]: 5.55% | inhibition at 10 µM [7, 37]: 13.9% | inhibition at 10 µM [8, 38]: 0% | inhibition at 10 µM [9, 39]: 1.84% | inhibition at 10 µM [10, 40]: 3.98% | inhibition at 10 µM [11, 41]: 12.8% | inhibition at 10 µM [12, 42]: 0.55% | inhibition at 10 µM [13, 43]: 5.06% | inhibition at 10 µM [14, 44]: 1.89% | inhibition at 10 µM [15, 45]: 0% | inhibition at 10 µM [16, 46]: 4.12% | inhibition at 10 µM [17, 47]: 0% | inhibition at 10 µM [18, 48]: 0% | inhibition at 10 µM [19, 49]: 0% | inhibition at 10 µM [20, 50]: 5.85% | inhibition at 10 µM [21, 51]: 2.8% | inhibition at 10 µM [22, 52]: 14.7% | inhibition at 10 µM [23, 53]: 2.31% | inhibition at 10 µM [24, 54]: 22% | inhibition at 10 µM [25, 55]: 0% | inhibition at 10 µM ([26]; U251, CNS Cancer, NCI one dose): 5.67% | inhibition at 10 µM [27, 56]: 0% | inhibition at 10 µM [28, 57]: 20.1% | inhibition at 10 µM [29, 58]: 9.4% | inhibition at 10 µM [30, 59]: 0.91% | inhibition at 10 µM [31, 60]: 0% | inhibition at 10 µM [32, 61]: 11.7%
